Experimental data from PubChem BioAssay AID2423 (Broad Institute, 2010).
pEC50: −log10 of the molar value. Results filed as inconclusive are left out. Active and inactive are the calls of the source. The rule behind the calls is not given here.

System: C. albicans CaCi-8 + fluconazole, Alamar Blue growth, 48 h
Test: resistant C. albicans growth inhibition with fluconazole, dose response, CaCi-8 strain, Alamar Blue fluorescence (AID 2423)

Structure (SMILES)	EC50	pEC50
CC(C(=O)c1ccccc1)[n+]1cccc(Br)c1 (stereo not given)	> 15000 nM (inactive)	
CCOC(=O)c1sc(N2C(=O)C(O)=C(C(=O)c3ccco3)C2c2cccc(Cl)c2)nc1C (stereo not given)		6.22
O=[N+]([O-])c1cccnc1S(=O)(=O)c1ccccc1		6.06
Cc1ccc(-n2c(Cc3ccccc3)n[nH]c2=S)c(C)c1		6.10
Cc1c(CCOC(=O)CC23CC4CC(CC(C4)C2)C3)sc[n+]1Cc1ccccc1		4.98
COc1ccc(C)cc1Nc1n[n+](-c2ccccc2)c(-c2ccc(N(C)C)cc2)s1		5.43
Oc1cccc(Nc2ncnc3c2oc2ccccc23)c1		5.18
COc1ccc(-c2cc(-c3cc(F)ccc3O)[nH]n2)cc1OC		4.86
Cc1cccc(NC2=NC(=S)N(c3cccc(C(=O)O)c3)C23CCCCC3)c1		6.11
Cc1ccc2ccc3ccc(C)nc3c2n1		6.00
COc1cccc(/C=N/Nc2ncnc3scc(-c4ccccc4)c23)c1O		5.92
Oc1c(C(c2ccccn2)N2CCOCC2)ccc2cccnc12 (stereo not given)		5.31
CCCCCCCCC(=O)NNC(=O)c1c(O)c2ccccc2n(CC)c1=O		5.72
Nc1[nH]n2c(=O)cc(-c3ccccc3)nc2c1N=Nc1ccc(S(N)(=O)=O)cc1		5.51
Cc1ccsc1C(=O)OCC(=O)Nc1nnc(-c2ccccc2)o1		5.51
O=c1c2ccccc2nc(N/N=C/c2c(O)ccc3ccccc23)n1O		6.62
O=c1ccc(N=Nc2ccccc2)ccc1O		6.06
Oc1cccc2ccc(Nc3ccccn3)nc12		5.63
c1ccc(Sc2cccc3ccccc23)c(CNC2=NCCN2)c1		5.02
CCC(C)n1cnc2c(c1=O)c1nc3ccccc3nc1n2Cc1ccc(OC)cc1 (stereo not given)		6.21
O=C(COc1ccc([N+](=O)[O-])cc1)NNC(=S)NC(=O)c1ccc(Br)cc1		5.60
COc1ccc(-n2nc(C(=O)NCC(=O)NCCC3=CCCCC3)c3ccccc3c2=O)c(OC)c1		6.63
O=CNCCCc1nc2ccccc2n1Cc1cccc2ccccc12		5.45

Structure (SMILES)	EC50	pEC50
CCCCC(=O)NNC(=S)NC(=O)C(c1ccccc1)c1ccccc1		5.76
Cc1nnc(NC(=O)c2ccc(S(=O)(=O)N(C)Cc3ccccc3)cc2)o1		6.09
O=C(OCn1ncc(Cl)c(Cl)c1=O)c1cccc(C(F)(F)F)c1		5.61
N/C(=N\OC(=O)N1c2ccccc2Sc2ccccc21)c1ccccc1		6.71
CCc1nnc(NC(=O)CN2CCN(c3nc(-c4ccccc4)cs3)CC2)s1		6.43
Cc1ccccc1-c1ccnc2[nH]n(-c3ccccc3)c(=O)c12		4.84
COc1ccccc1NC1=C(N2CCCCC2)C(=O)c2ccccc2C1=O		6.61
CC1CCN(Cc2c(C(=O)N/N=C/c3cc(Cl)ccc3O)nnn2-c2nonc2N)CC1		6.16
Cc1cccc(NC(=S)NNC(=O)c2cc3c(s2)CCC(C)C3)c1C (stereo not given)		5.86
Cc1cc(C)c(S(=O)(=O)Nc2cccc(-n3cnnn3)c2)c(C)c1		4.89
O=C(Oc1c(CN2CCOCC2)cc(Cl)c2cccnc12)c1ccccc1Cl		5.62
O=C1N/C(=N\N=C\c2cccnc2)SC1Cc1ccc(SC(F)F)cc1 (stereo not given)		5.49
Cc1cc(N/N=C/c2c(O)ccc3ccccc23)nc(-c2ccccc2O)n1		6.88
N#Cc1c(Cl)nsc1NC(=O)c1ccccc1	> 16000 nM (inactive)	
COc1ccc(CCNc2ncnc3sc(C)cc23)cc1OC		5.79
O=C(Oc1c(Cl)cc(Cl)c2cccnc12)c1cccs1		6.35
CC(C)(C)c1ccc(SCC(N)=O)cc1	> 15000 nM (inactive)	
CCCOc1cccc(C(=O)Nc2cccnc2)c1		5.66
Cc1ccc(C(=O)Nc2cccc(-c3cn4ccccc4n3)c2)cc1		6.49
Cc1ccc(C2C3=C(CC(C)(C)CC3=O)N=C3c4ccccc4C(=O)C32)cc1 (stereo not given)		6.11
CCCc1ccc(Oc2cn[nH]c2-c2ccc(O)cc2O)cc1		5.09
O=C(/C(=N/N=C/c1ccc(O)c(O)c1O)c1ccccc1)c1ccccc1		5.64
S=C(Nc1ccccc1)Nc1nc2ccccc2n1CCOc1ccccc1		5.70

Structure (SMILES)	EC50	pEC50
CCOC(=O)Cc1csc(NC(=O)CSc2nnc(-c3ccc(NS(=O)(=O)CC)cc3)o2)n1		6.82
CC(=O)NC(c1ccc(C)cc1)c1cc([N+](=O)[O-])c2cccnc2c1O (stereo not given)		6.70
Cc1ccc2[nH]c(C)c(/C=C/c3cc[n+](C)cc3)c2c1		5.54
C/C(=N/NC(=O)c1ccccc1O)c1ccc(N2C(=O)C3CCCCC3C2=O)cc1 (stereo not given)	> 16000 nM (inactive)	
COc1cc(NS(=O)(=O)c2ccc3ccccc3c2)c2ncccc2c1		5.59
CCOc1cc(/C=C2\SC(=S)N(NS(=O)(=O)c3ccccc3)C2=O)ccc1O		5.69
COc1cccc(C(=O)NNC(=O)c2ccc3ccccc3c2O)c1		5.03
O=C(C[n+]1ccccc1)N/N=C/c1cccs1	> 15000 nM (inactive)	
CC(=O)Oc1c(-c2ccc(Br)o2)oc2ccccc2c1=O		5.38
O=c1c2ccccc2nc(-c2ccc(Cl)cc2Cl)n1O		5.99
CCn1c(=O)c(C(=O)NCc2cccnc2)c(O)c2ccccc21		5.02
COc1cccc(C(=O)Oc2c(CN3CCOCC3)cc(Cl)c3cccnc23)c1		5.71
O=C(O/N=C1/CCSc2ccccc21)c1ccc(F)cc1	> 15000 nM (inactive)	
O=[N+]([O-])c1cccc(C=Nc2cccc3ccccc23)c1O		4.91
N=C1/C(=C/c2cccn2-c2ccc([N+](=O)[O-])cc2)C(=O)N=C2SC=CN12	> 16000 nM (inactive)	
COCCNC(=O)C(c1ccc(C)o1)N(CCOC)C(=O)Cn1nnc2ccccc21 (stereo not given)	> 15000 nM (inactive)	
Cc1cc(SCC(=O)N/N=C/c2ccc(O)c(O)c2O)c(C)cc1Br		6.05
Cc1ccc(NC(=O)c2ccccc2NS(=O)(=O)c2ccc(Cl)s2)cc1		5.94
Cc1ccc(N=Cc2cc(Cc3ccccc3Cl)cc([N+](=O)[O-])c2O)c(O)c1	> 15000 nM (inactive)	
COc1ccc(OC)c(-n2c(CN3CCC(C(N)=O)CC3)nc3ccccc3c2=O)c1	> 15000 nM (inactive)	
O=c1[nH]c(Nc2ccc3c(c2)OCCO3)nnc1Cc1ccccc1	> 16000 nM (inactive)	
Cc1noc(NC(=O)c2ccc(Cl)c(Cl)c2)c1Cl	> 15000 nM (inactive)	
CCCc1cc(=O)[nH]c(SCc2csc(-c3ccccc3)n2)n1		5.86

Structure (SMILES)	EC50	pEC50
NNC(=O)c1cc(-c2cccs2)nc2ccccc12	> 15000 nM (inactive)	
C=C(C)CNC(=S)N/N=C1\CCCCc2ccccc21	> 16000 nM (inactive)	
CC(=O)Nc1cccc(-c2csc(Nc3ccc(C)cn3)n2)c1		5.65
Oc1c(C(Nc2nc3ccccc3s2)c2ccco2)ccc2cccnc12 (stereo not given)		5.70
Cc1ccc(C(=O)NC(=S)NNC(=O)CC#N)cc1	> 15000 nM (inactive)	
COC(=O)c1ccc(COc2ccc(/C=C(\C#N)c3nc4ccccc4[nH]3)cc2OC)o1		5.58
Clc1ccc2c(c1)C(c1cccs1)=NNC(c1cccnc1)=N2		> 6.92
CCOC(=O)Cc1csc(NC(=O)CSc2nnc(-c3ccncc3)o2)n1		> 6.92
COc1ccnc(N2CCN(c3ccccc3)CC2)c1C#N		6.07
CCOC(=O)C(CC)/C(C)=N\NC(=O)c1ccccc1O (stereo not given)		5.11
COc1ccc(C(=O)NC(=S)NNC(=O)c2ccc(C)cc2)cc1		5.62
CC1=C/C(=N\NC(=S)NCCc2ccccc2)CC(C)(C)C1	> 15000 nM (inactive)	
N=C(N)c1ccc(/C=C/c2ccc(C(=N)N)cc2O)cc1	> 15000 nM (inactive)	
Brc1cccc(CSc2nnc(-c3ccncc3)o2)c1	> 15000 nM (inactive)	
O=C(/C=C/c1ccc([N+](=O)[O-])o1)NNC(=O)c1ccc(F)cc1		5.93
COc1ccc(C(NC(=O)C(C)C)c2ccc3cccnc3c2O)cc1 (stereo not given)		6.10
COc1ccc(NC(=O)/C(C#N)=C\c2ccc(N3CCOCC3)o2)cc1		5.43
CCN1/C(=C/c2ccc3cccc(C)c3[n+]2CC)Sc2ccccc21		> 6.92
Cc1ccc(C)c(SCC(=O)Nc2nnc(-c3ccccc3)o2)c1		5.65
O=C(N/N=C/c1sc2ccccc2c1O)c1cccc2ccccc12		5.80
CO/N=C/c1ccc(N2CCN(C(=O)c3ccc(C)cc3)CC2)c([N+](=O)[O-])c1		5.68
Cc1ccccc1C(=O)Nc1nnc(-c2ccc(F)cc2)o1		6.20
CN(C)S(=O)(=O)c1cccc(NC(=S)N/N=C/c2ccc(O)c(O)c2O)c1		5.57

Structure (SMILES)	EC50	pEC50
CC(C)(C)C1CCC(OC(=O)C[N+]2(C)CCCCC2)CC1 (stereo not given)		4.95
Cc1ccc(C(=O)O/N=C/c2c(N3CCOCC3)n(C)c3ccccc23)cc1		6.21
O=C(O)c1ccc(Nc2cnc3ccccc3n2)cc1	> 16000 nM (inactive)	
COc1cccc(/C=N/NC(=O)c2nc(-c3ccccc3)cc(-c3ccccc3)n2)c1O		5.75
CCOc1ccc(NC(=O)NNC(=O)c2ccc3ccccc3c2O)cc1		5.61
CC1(C)COCN1S(=O)(=O)c1ccc(C(=O)Nc2nnc(-c3ccc(Cl)s3)o2)cc1		6.32
c1ccc(-c2ccccc2OCCCN2CCCCCC2)cc1		5.18
CCc1nnc(NC(=O)CSc2nc(SC)ns2)s1		5.83
Oc1c(CN2CCc3ccccc3C2)cc(Cl)c2cccnc12		6.07
O=C(Nc1nc2ccc(S(=O)(=O)N3CCCCC3)cc2s1)c1ccncc1		5.98
O=C(Oc1c(Cl)cc(Cl)c2cccnc12)N1CCOCC1	> 15000 nM (inactive)	
S=C(NCCN1CCOCC1)NC1CCCC1	> 15000 nM (inactive)	
CCOC(=O)Cc1csc(NC(=O)c2ccc3ncsc3c2)n1		5.17
O=C(Cn1c2ccc(F)cc2c2nc3n(c(=O)c21)CCS3)N1CCCC1	> 16000 nM (inactive)	
CNC1=C(N(C(C)=O)c2ccc(Br)cc2)C(=O)c2ccccc2C1=O		6.72
Cc1nc2ccccc2cc1OCc1ccccc1		5.79
O=Cc1cc(N=Nc2ccccc2Cl)ccc1O		5.19
COc1ccc(OC)c(Nc2nc(-c3ccc(O)c(O)c3)cs2)c1		4.97
Cc1cccc(C2c3[nH]c4ccccc4c3CCN2C(=O)c2cc(-c3cccn3C)n[nH]2)n1 (stereo not given)		5.98
COc1ccc(-[n+]2c(-c3ccccc3)cc(-c3ccccc3)cc2-c2ccccc2)cc1	> 15000 nM (inactive)	
Nc1[nH]c(=O)ncc1F		6.15
O=[N+]([O-])c1ccc(O)c2ncccc12		6.17
O=C(Oc1c(CN2CCOCC2)cc(Cl)c2cccnc12)c1ccccc1		5.58
